The test system of one series is A549 cells. Kind of series: RT-CES cell proliferation inhibition, A549. Type of series: cell-based, Human. An excerpt: The biological activity of compounds disclosed herein was monitored and profiled using the Real-Time Cell Electronic Sensing (RT-CES®) system from ACEA Biosciences, Inc. The RT-CES system utilizes cell-substrate impedance technology to monitor cellular behavior inside tissue culture wells in a microtiter plate format. The technology features in the integration of molecular and cell biology with microelectronics and is based on the electronic detection of biological assay process. The details of this cell electronic sensing technology and associated devices, systems and methods of use as described in U.S. provisional application No. 60/379,749, filed on Jul. 20, 2002; U.S. provisional application No. 60/435,400, filed on Dec. 20, 2002; U.S. Provisional application 60/469,572, filed on May 9, 2003, PCT application number PCT/US03/22557, filed on Jul. 18, 2003; PCT application number PCT/US03/22537, filed on Jul. 18, 2003; U.S. patent application Ser. No. 10/705,447, filed on Nov. 10, 2003; U.S. patent application Ser. No. 10/705,615, filed on Nov. 10, 2003, each of which is incorporated by reference. Additional details of RT-CES technology is further disclosed in U.S. provisional application No. 60/519,567, filed on Nov. 12, 2003, and U.S. provisional application No. 60/542,927, filed on Feb. 9, 2004.
For measurement of cell-substrate or cell-electrode impedance using RT-CES technology, microelectrodes having appropriate geometries are fabricated onto the bottom surfaces of microtiter plate or similar device, facing into the wells. Cells are introduced into the wells of the devices, and make contact to and attach to the electrode surfaces. The presence, absence or change of properties of cells affects the electronic and ionic passage on the electrode sensor surfaces. Measuring the impedance between or among electrodes provides important information about biological status of cells present on the sensors. When there are changes to the biological status of the cells analogue electronic readout signals are measured automatically and in real time, and are converted to digital signals for processing and for analysis. In a RT-CES system, a cell index (arbitrary representation of change in impedance) is automatically derived and provided based on measured electrode impedance values. The cell index obtained for a given well reflects: 1) how many cells are attached to the electrode surfaces in this well; 2) how well cells are attached to the electrode surfaces in this well. Thus, the more the cells of same type in similar physiological conditions attach the electrode surfaces, the larger the cell index. And, the better the cells attach to the electrode surfaces (e.g., the cells spread-out more to have larger contact areas, or the cells attach tighter to electrode surfaces), the larger the cell index.
The RT-CES system comprises three components, an electronic sensor analyzer, a device station and 16× or 96× microtiter devices. Microelectrode sensor array was fabricated on glass slides with lithographical microfabrication methods and the electrode-containing slides are assembled to plastic trays to form electrode-containing wells. The device station receives the 16× or 96× microtiter plate devices and is capable of electronically switching any one of the wells to the sensor analyzer for impedance measurement. In operation, the devices with cells cultured in the wells are placed into a device station that is located inside an incubator. Electrical cables connect the device station to the sensor analyzer. Under the RT-CES software control, the sensor analyzer can automatically select wells to be measured and continuously conduct impedance measurements. The impedance data from the analyzer is transferred to a computer, analyzed and processed by the integrated software.
To quantify cell status based on the measured cell-electrode impedance, a parameter termed Cell Index is derived. […]

Molecules are shown by their SMILES. Some results are limits rather than exact numbers.

`Br.Cc1nc2sccn2c1-c1csc(Nc2ccc(Br)cc2)n1`: the melting point was > 250 °C.
As for `Br.Cc1nc2sccn2c1-c1csc(Nc2ccc(Br)cc2)n1` [Compound 28, 2-(4-bromophenyl)amino-4-(6-methylimidazo[2,1-b]thiazol-5-yl)thiazole], the “response pattern of A549 cells compared with paclitaxel” value in the series with A549 cells (140 nM of compound vs 12.5 nM of paclitaxel) and in the series on A549 cells (560 nM of compound vs 25 nM of paclitaxel) was “somewhat similar” throughout. The “concentration at or above which cell indices first decreased with time and then increased” value in the series on A549 cells (A549, complex kinetic responses) is ≥ 0.14 µM. In addition, the IC50 in the series with A549 cells (Homo sapiens, A549, 24 hours after compound treatment, normalized Cell Index, read-out: IC50 (24 hr)) was 86.4 nM. Also, in the series with A549 cells (various concentrations studied, time-dependent cell index), the “inhibitory ability against the proliferation of A549 cells” value is “exhibited inhibitory ability against the proliferation of A549 cells”.

The values are drawn from patent US8252822B2, “Heterocyclic compounds and uses as anticancer agents” (Acea Biosciences, Inc., priority 2007, dated 2012).
